Molecular target: T1, recombinant P. falciparum DHODH (Plasmodium falciparum, UniProt Q08210)
T1 sequence (Q08210 24-569): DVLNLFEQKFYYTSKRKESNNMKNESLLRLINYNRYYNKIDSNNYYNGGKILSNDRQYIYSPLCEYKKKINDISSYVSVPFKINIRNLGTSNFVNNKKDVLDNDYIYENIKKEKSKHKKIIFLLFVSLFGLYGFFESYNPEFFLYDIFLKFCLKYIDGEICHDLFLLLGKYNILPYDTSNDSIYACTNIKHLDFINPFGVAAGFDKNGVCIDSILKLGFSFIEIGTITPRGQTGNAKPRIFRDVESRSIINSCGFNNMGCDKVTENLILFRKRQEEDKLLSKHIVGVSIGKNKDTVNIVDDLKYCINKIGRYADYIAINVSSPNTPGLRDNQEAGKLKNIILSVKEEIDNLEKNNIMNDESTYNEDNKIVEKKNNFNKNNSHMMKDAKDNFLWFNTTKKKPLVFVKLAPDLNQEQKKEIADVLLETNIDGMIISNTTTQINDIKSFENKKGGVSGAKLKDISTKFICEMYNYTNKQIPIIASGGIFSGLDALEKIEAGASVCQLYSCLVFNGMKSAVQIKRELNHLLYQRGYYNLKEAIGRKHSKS
Assay: P. falciparum DHODH enzymatic assay
Settings: biochemical assay

inhibition of recombinant P. falciparum DHODH	Structure (SMILES)
completely devoid of effect	Cc1ccc(-n2nc(OC(C)C)c(Oc3c(F)cccc3F)c2C)nn1 [22a, 3-(4-(2,6-Difluorophenoxy)-3-isopropoxy-5-methyl-1H-pyrazol-1-yl)-6-methylpyridazine]
completely devoid of effect	Cc1c(Oc2c(F)cccc2F)c(OC(C)C)nn1-c1ccc(C2CC2)nn1 [compound 10q, 3-Cyclopropyl-6-(4-(2,6-difluorophenoxy)-3-isopropoxy-5-methyl-1H-pyrazol-1-yl)pyridazine]
